Converted amounts (≈) assume the structure as drawn.
settings: buffer; pH 7.4; 200.0 µM

SMILES	solubility kinetic [µg/mL]
N#CCc1ccc(NC(=O)Cn2c(=O)oc3ccccc32)cc1	6.7 (≈ 21.8 µM)
CC(NC(=O)Cn1cc(C(F)(F)F)ccc1=O)c1ccc(F)cc1 (stereo not drawn)	23.5 (≈ 68.7 µM)
OCCCNc1nc(-c2ccc(Cl)cc2)nc2ccccc12	1.8 (≈ 5.74 µM)
Cc1ccc(Cl)cc1N1C(=O)CC(Sc2ncccn2)C1=O (stereo not drawn)	> 50.1
COc1ccc2c(c1)CCC/C2=N/OC(=O)c1ccccc1OC	2.6 (≈ 7.99 µM)
CCOC(=O)C1(Cc2cccc(F)c2)CCN(CC(O)CO)CC1 (stereo not drawn)	43.3 (≈ 128 µM)
CCOc1ccc(C(=O)NC2CC(C)(C)NC(C)(C)C2)cc1.Cl	> 51.1
Cc1sc(NC(=O)/C=C/c2ccco2)c(C(=O)O)c1C	40.9 (≈ 140 µM)
CCN(Cc1ccncc1)Cc1c(O)ccc2ccccc12	31.1 (≈ 106 µM)
NC1=NC(=O)C(Cc2ccc(OC(F)(F)F)cc2)S1 (stereo not drawn)	> 43.5
CN(C)Cc1cc2ccccc2c2c1COC2	31.5 (≈ 139 µM)
O=C(O)c1csc(-c2ccc(Cl)cc2)n1	> 36
O=c1[nH]c2ccccc2nc1C(Nc1ccccc1)c1ccccc1 (stereo not drawn)	< 0.2
CCOc1cc(N2CCOCC2)c(OCC)cc1NC(=O)c1cc(S(=O)(=O)N2CCOCC2)ccc1C	> 80
CC1CCN(C(=O)c2cc3ccccc3cc2O)CC1	> 40.4
O=C(CN1C(=O)S/C(=C/c2ccncc2)C1=O)Nc1ccccc1	5.5 (≈ 16.2 µM)
COCCOC(=O)c1[nH]c2c(c1C)C(=O)CC(c1ccc(OC)cc1)C2 (stereo not drawn)	1.6 (≈ 4.48 µM)
CN(Cc1ccccc1)c1cc(Cl)nc(N)n1	21.5 (≈ 86.4 µM)
Cc1ccc(Cl)c(OCC(=O)Nc2ccccc2C(=O)NC2CC2)c1	5.9 (≈ 16.4 µM)
O=C(CSc1ccc2ccccc2n1)NC1CC1	38 (≈ 147 µM)
CCN1CCN(C(=O)/C=C/c2ccc3c(c2)OCO3)CC1	> 43.3
CC(C)C(NC(=O)c1ccc(Cl)cc1Cl)C(=O)N1CCC1 (stereo not drawn)	> 49.4
CN(C)CCCNC(=O)c1cc(C(=O)c2ccc(F)cc2)c[nH]1	> 47.6
COc1ccccc1NC(=O)Cc1ccsc1	> 37.1

SMILES	solubility kinetic [µg/mL]
Cc1ccc(N(CC(=O)NC(C)(C)C)C(=O)CCC(=O)Nc2nccs2)cc1C	12.2 (≈ 29.3 µM)
N#CCC(=O)N1CCN(Cc2ccc3c(c2)OCO3)CC1	1.6 (≈ 5.57 µM)
CC(C(=O)N1CCCC1)N1CCN(S(=O)(=O)c2ccccc2)CC1 (stereo not drawn)	47.1 (≈ 134 µM)
O=C(CSc1ncccc1C(=O)O)NC1CCCCCCC1	47.3 (≈ 147 µM)
COCCSc1ncnc2c1oc1nc3c(cc12)COC(C)(C)C3	43 (≈ 124 µM)
c1ccc2c(c1)Cc1cc3ccccc3nc1-2	4.3 (≈ 19.8 µM)
O=C(CCNS(=O)(=O)c1ccc(Cl)cc1)N1CCCC1	> 47.5
O=S(=O)(NC1CCCCC1N1CCCCC1)c1ccccc1 (stereo not drawn)	> 48.4
COC(=O)c1ccc(CNC(=O)c2ccc(S(=O)(=O)N3CCCCCC3)cc2)cc1	3.6 (≈ 8.36 µM)
CSC1=C(C#N)C(c2sccc2C)CC(=O)N1 (stereo not drawn)	> 39.7
CCOc1ccc(S(=O)(=O)N2CCN(C(=O)c3ccncc3)CC2)cc1	> 56.3
O=C(CCCN1C(=O)c2cccnc2C1=O)Nc1ccccc1F	46.4 (≈ 142 µM)
CC1CN=C(Nc2ccc(F)c(Cl)c2)S1 (stereo not drawn)	17.3 (≈ 70.7 µM)
Cc1ccc(CN(C)Cc2cc(=O)oc3cc(C)c(Cl)cc23)cc1	< 0.7
Cc1ccc(C(C)C)cc1OCC(=O)NCCCn1ccnc1	> 47.3
Cc1ccc(Nc2c3c(nc4ccccc24)CCC3)cc1.Cl	33.4
CN(C)CCCNC(=O)c1cc(C(=O)c2ccccc2)c[nH]1	> 44.9
CCNC(=O)COC(=O)/C=C/c1cccs1	> 35.9
COc1c(C)cc(C(=O)C2CCCN(C(=O)c3cc4nc(C)cc(C)n4n3)C2)cc1C (stereo not drawn)	> 63.1
Cc1cccc(NC(=O)c2cccc(N3C(=O)C4C5C=CC(C6CC56)C4C3=O)c2)c1 (stereo not drawn)	1.5 (≈ 3.76 µM)
CC(NC(=O)c1ccc2ccccc2n1)c1ccccc1 (stereo not drawn)	18.9 (≈ 68.4 µM)
Cc1cccn2c(=O)c(/C=C(\C#N)C(N)=O)c(N3CCCCCC3)nc12	5.1 (≈ 14.5 µM)
O=C1/C(=C/c2ccccc2)SC(=S)N1C1CCS(=O)(=O)C1 (stereo not drawn)	0.9 (≈ 2.65 µM)
O=C(Nc1ccccc1)Nc1nc2ccccc2s1	< 0.2

SMILES	solubility kinetic [µg/mL]
COC(=O)c1cc(-c2cccs2)nc2ccccc12	9.6 (≈ 35.6 µM)
CC1(C)Cc2ccccc2C(C(Cc2ccccc2)C(N)=O)=N1 (stereo not drawn)	41.8 (≈ 136 µM)
CN(C(=O)CSc1cccc[n+]1[O-])C1CCCCC1	> 42.1
CCOc1cccc(C(=O)NC(c2ccccc2)C(C)C)c1 (stereo not drawn)	5.1 (≈ 17.1 µM)
CCC(=O)c1ccc(OCC(=O)Nc2ccc(S(=O)(=O)Nc3cc(C)nc(C)n3)cc2)cc1	> 70.3
COc1ccccc1NC(=O)CCCCC(=O)Nc1ccccc1OC	41.8 (≈ 117 µM)
Cc1cc(NC(=O)COC(=O)C2=COCCO2)c([N+](=O)[O-])cc1C	3.7 (≈ 11 µM)
NC(=O)C1CCN(S(=O)(=O)c2ccccc2[N+](=O)[O-])CC1	39.8 (≈ 127 µM)
O=C(O)c1cccc(Nc2nc3ccccc3nc2NS(=O)(=O)c2ccc(F)cc2)c1	> 65.8
Cc1cc2c(cc1C)C(c1ccccc1OC(C)C)CC(=O)N2 (stereo not drawn)	< 0.7
O=C1/C(=C/c2ccccc2Cl)N2CCC1CC2	22.8 (≈ 92 µM)
Nc1c(N(CCCO)C(=O)C2CCCCC2)c(=O)[nH]c(=O)n1Cc1ccccc1	> 60.1
CC(C)Cn1c(N)cc(=O)n(C)c1=O	22.2 (≈ 113 µM)
CCC(=O)Nc1c(-c2ccc(C)cc2)c(=O)c2ccccc2n1C	20.8 (≈ 64.9 µM)
CCOC(=O)c1cccc(N2C(=O)C3C4C=CC(CC4)C3C2=O)c1 (stereo not drawn)	3.7 (≈ 11.4 µM)
Cc1ccc(C(=O)OCc2cc(=O)n3ccsc3n2)s1	6.8 (≈ 22.2 µM)
CSc1ccccc1NC(=O)COC(=O)Cc1ccsc1	> 48.2
Cc1cc(F)ccc1S(=O)(=O)N(CC(=O)N1CCOCC1)CC(=O)N1CCOCC1	> 66.5
Nc1ncc2[nH]cnc2n1.O=[N+]([O-])O	> 29.7
CCCCCC(=O)Nc1ncc2c(n1)CC(c1cccs1)CC2=O (stereo not drawn)	4.4 (≈ 12.8 µM)
CCN(CC(=O)NC(C)C)C(=O)c1cc(S(=O)(=O)N2CCCCC2)ccc1N1CCCCC1	10.7 (≈ 22.4 µM)
O=C(O)c1cc(-c2ccc(Cl)c(Cl)c2)n(-c2ccccc2)n1	> 50
CCCCNC(=O)C1CC(=O)N(CCc2ccccc2)C1 (stereo not drawn)	> 43.3
Cc1ccc(NC2CCCN(C(=O)c3cccnc3)C2)cc1C (stereo not drawn)	> 46.4

SMILES	solubility kinetic [µg/mL]
CC1=CC=CC2=NC(=O)CC(C)(C(=O)O)N12 (stereo not drawn)	> 33
O=C(NCCCCc1ccccc1)c1ccccc1F	> 40.7
O=C(CCS(=O)(=O)Cc1ccccc1)NCCc1ccccc1	11.9 (≈ 35.9 µM)
COc1cc(OC)cc(C(=O)Nc2cc(C)on2)c1	9.7 (≈ 37 µM)
CCOC(=O)c1ccc(S(=O)(=O)Nc2cc(S(=O)(=O)Nc3ccc(OC)cc3)ccc2O)cc1	72.8 (≈ 144 µM)
CC1(C)OC(=O)C(=NNc2ccccc2C(=O)O)C(=O)O1	> 43.8
O=C(/C(=C(\O)c1ccccc1)c1nc2ccccc2[nH]1)c1ccccc1	< 0.4
Fc1ccc(-n2cc(-c3ccccc3)[n+]3c2SCC3)cc1.[Br-]	> 56.6
NC(=O)C1CCN(CC(=O)Nc2cccnc2Cl)CC1	44.1 (≈ 149 µM)
O=C(NC1CCCCC1)C1CC(=O)N(c2ccccc2)C1 (stereo not drawn)	38.5 (≈ 134 µM)
CC(=O)C1=C(c2ccccc2)NC(=O)NC1c1ccccc1 (stereo not drawn)	> 43.9
CCCOc1ccc2nc(C)c(CCC)c(SC(=N)N)c2c1.Cl	33
NC1=NC(=O)/C(=C/c2cccc(F)c2)S1	2.7 (≈ 12.1 µM)
Fc1ccc(CO/N=C2\CCCc3nonc32)cc1	3 (≈ 11.5 µM)
CC(C)CN(Cc1cc(=O)oc2cc3c(cc12)CCCC3)CC(C)C	1.1 (≈ 3.22 µM)
NC(=O)COC(=O)c1c2c(nc3ccccc13)CCCC2	39.4 (≈ 139 µM)
COc1ccc(C(=O)NC(C)c2cccnc2)cc1S(=O)(=O)N(C)Cc1ccccc1 (stereo not drawn)	47 (≈ 107 µM)
CS(=O)(=O)c1ccc(Cl)c(NC(=O)CCN2C(=O)NC3(CCCC3)C2=O)c1	> 62.1
N#CC1CCN(c2ncccc2[N+](=O)[O-])CC1	> 34.8
Cc1cccc(N2CCN(CC(=O)NCc3ccc(Cl)cc3)CC2)c1C	1.6 (≈ 4.3 µM)
O=C(Nc1ccc(C(=O)N2CCCCC2)cc1)c1cccs1	35 (≈ 111 µM)
Cn1cc(-c2ccccc2C(=O)O)c(=O)c2ccccc21	> 41.9
Nc1ccncc1N	12.2 (≈ 112 µM)
O=C(Nc1ccc(N2CCCC2)cc1)c1ccccc1[N+](=O)[O-]	2.4 (≈ 7.71 µM)

SMILES	solubility kinetic [µg/mL]
Clc1ccc2c(c1)Nc1ccccc1CC2	< 0.5
COc1ccc(C(=O)NCC(=O)N2CCCC(C)C2)cc1OC (stereo not drawn)	> 48.1
C[C@@H]1NC(=O)N[C@@H]1CCCCCC(=O)O	> 32.1
CCc1ccccc1N1CC(C(=O)Nc2nccs2)CC1=O (stereo not drawn)	45.2 (≈ 143 µM)
COc1nccc(NCc2ccccc2)c1C#N	20.1 (≈ 84 µM)
CN(Cc1ccccc1)C(=O)COC(=O)c1cc(=O)[nH]c2ccccc12	34.4 (≈ 98.2 µM)
O=C(OCc1nc(-c2ccccc2Cl)no1)c1ccco1	19 (≈ 62.4 µM)
N#Cc1cc2cc3ccccc3nc2n2c(=O)c3ccccc3nc12	< 0.2
Cc1cc2c(NCCc3ccccc3)ncnc2s1.Cl	8.7
CCNC(=O)C(=O)c1c(-c2ccccc2)[nH]c2ccccc12	> 43.9
O=[N+]([O-])c1ccc(C(O)C(CO)NC(=S)Nc2ccccc2)cc1 (stereo not drawn)	> 52.1
O=C(c1ccc(COCC(F)(F)F)o1)N1CCCC1	40.3 (≈ 145 µM)
CN(Cc1ccc(F)cc1)Cc1nc(CCc2ccccc2)no1	5.7 (≈ 17.5 µM)
CC(C)CCNc1nc(N)c([N+](=O)[O-])c(N2CCCCCC2)n1	0.5 (≈ 1.55 µM)
COc1cccc(-n2c(=S)[nH]c3c(oc4ccccc43)c2=O)c1	45.3 (≈ 140 µM)
Fc1cccc(Nc2nc(Cl)nc(Cl)n2)c1	36.2 (≈ 140 µM)
O=C(CNc1cccc(S(=O)(=O)N2CCCC2)c1)Nc1cccc(C(F)(F)F)c1	21.1 (≈ 49.4 µM)
O=c1cc(-c2ccccc2)c2cc(Cl)ccc2[nH]1	< 0.5
COc1ccc(C=C(C#N)C#N)c(CSc2ccccn2)c1	2.1 (≈ 6.83 µM)
COc1ccc(NC(=S)NCCN2CCOCC2)cc1	> 44.3
Cc1ccc(N2C(=O)CCC(C(=O)O)C2c2cccs2)cc1 (stereo not drawn)	46.3 (≈ 147 µM)
Cc1cccc(OCc2nnc(SC(C)C(=O)Nc3ccc(N4CCOCC4)cc3)o2)c1 (stereo not drawn)	> 68.2
